The results in this text go back to US12594271B2, “Combination therapy for cancer” (Health Research, Inc., priority 2019, dated 2026).

Each structure is given as a SMILES string.

For the experiment, the system named is MDSCs. The experiment can be described thus: MDSC suppression assay: inhibition of T cell proliferation by in vitro generated MDSCs. The note with it: ATRA 10 μM at start of culture, side-by-side with BRQ 1 μM. It is filed as cell-based, mouse. How it is done: FIG. 2. […] (A) MDSCs were produced in vitro from mouse bone marrow cells using GM-CSF and G-CSF±BRQ (1 μM) or ATRA (10 μM) at the start of the 4-day culture. Cells tested for their ability to inhibit T cell proliferation (1:1 ratio), as in FIG. 5. Fresh BM=Uncultured bone marrow cells. (B) Similar to A, except that uridine (200 μM) was added to rescue the effect of BRQ. (C) Expression of IRF8 (upper) or SLFN4 (lower) was analyzed by qRT-PCR in Lin^− BM cells cultured as in A for 2 days. Data normalized to the vehicle.
In Vitro Development of MDSCs. Unfractionated mouse bone marrow cells were cultured in dishes with recombinant mouse G-CSF and recombinant mouse GM-CSF (40 ng/ml of each cytokine) for 96 hours to produce MDSCs, as described (Marigo et al. Immunity 32:790-802, 2010). After culture, cells were collected and analyzed by flow cytometry for the indicated cell surface markers. Uncultured or fresh bone marrow (BM) cells served as a negative control.
Cultured Cells Develop Potent Immunosuppressive Capacity. Using the methods described for FIG. 4, experiments were then performed to determine whether the cells generated from this BM culture system functionally behaved as MDSCs, based on their ability to inhibit T cell proliferation in vitro. To that end, fresh BM (i.e., no in vitro culture) or cultured BM cells (i.e., MDSCs at two different MDSC-to-T cell ratios of 1:1 or 1:2) were co-mixed in 96-well plates with CellTrace Violet (CTV)—stained syngeneic naïve splenocytes as a source of T cells and stimulated with or without soluble agonistic anti-CD3 monoclonal antibody (mAb) (1 μg/ml) for 72 hours. After co-culture, CTV dye dilution in the gated CD4^+ or CD8^+ T cell fractions within the splenocyte populations was analyzed by flow cytometry to determine the extent of proliferation based on dye dilution. In FIG. 5, top panels show CTV dye dilution, as determined by flow cytometry and depicted as a histogram; bottom panels indicate the percentage of proliferation, based on quantification of the histogram data. […]

Take `CC1=C(/C=C/C(C)=C/C=C/C(C)=C/C(=O)O)C(C)(C)CCC1` [ATRA, all-trans retinoic acid]: the “ability of in vitro generated MDSCs to inhibit CD4+ or CD8+ T cell proliferation” value is “BRQ is more effective than ATRA”.
